The values below come from BindingDB's records for doi:10.1016/j.ejmech.2018.04.030 (Chungnam National University, 2018).

Some results are limits rather than exact numbers.

The test can be described thus: Inhibition of IL-5 in mouse Y16 cells assessed as reduction in cell proliferation after 48 hrs by WST-1 assay.

`COc1ccc(COc2cccc3c2C(=O)/C(=C/c2ccccc2)C3)cc1`: the IC50 is above 30 µM.

In the case of `O=C1c2c(cccc2OCCc2ccccc2)CC1Cc1cccc(O)c1` (stereo unspecified), the IC50 is 28 µM.

As for `COc1ccc(COc2cccc3c2C(=O)/C(=C/c2ccc(O)cc2)C3)cc1`, the IC50 was above 30 µM.

Turning to `COc1ccc(/C=C2\Cc3cccc(OCc4ccc(OC)cc4)c3C2=O)cc1`, the IC50 was above 30 µM.

Take `COc1ccc(COc2cccc3c2C(=O)/C(=C/c2ccc(Cl)cc2)C3)cc1`: the IC50 is above 30 µM.

In the case of `COc1ccc(COc2cccc3c2C(=O)/C(=C/c2ccc(C)cc2)C3)cc1`, the IC50 is above 30 µM.

Regarding `COCOc1ccc(/C=C2\Cc3cccc(OCC4CCCCC4)c3C2=O)cc1`, the IC50 is above 30 µM.

For the compound `O=C1/C(=C/c2ccc(O)cc2)Cc2cccc(OCc3ccc([N+](=O)[O-])cc3)c21`, the IC50 was above 30 µM.

For `O=C1/C(=C/c2ccc(O)cc2)Cc2cccc(OCC3CCCCC3)c21`, the IC50 is above 30 µM.

On to `O=C1/C(=C/c2ccc(O)cc2)Cc2cccc(O)c21`, for which the IC50 was above 30 µM.

For `COc1ccc(/C=C2\Cc3cccc(O)c3C2=O)cc1`, the IC50 is above 30 µM.

As to `O=C1/C(=C/c2ccccc2)Cc2cccc(O)c21`, the IC50 is above 30 µM.

In the case of `COc1ccc(/C=C2\Cc3cccc(OCC4CCCCC4)c3C2=O)cc1`, the IC50 is above 30 µM.

As to `O=C1c2c(O)cccc2CC1Cc1ccc(O)cc1` (stereo unspecified), the 50% inhibitory concentration (IC50) is above 30 µM.

For `COc1ccc(CC2Cc3cccc(OCC4CCCCC4)c3C2=O)cc1` (stereo unspecified), the IC50 was above 30 µM.

Regarding `O=C1c2c(cccc2OCC2CCCCC2)CC1Cc1ccc(Cl)cc1` (stereo unspecified), the IC50 amounted to 20.5 µM.

With `Cc1ccc(CC2Cc3cccc(OCC4CCCCC4)c3C2=O)cc1` (stereo unspecified), the IC50 is 24.5 µM.

For the compound `O=C1c2c(cccc2OCC2CCCCC2)CC1Cc1ccc(O)cc1` (stereo unspecified), the IC50 came out at 4 µM.

Turning to `O=C1c2c(cccc2OCC2CCCCC2)CC1Cc1cccc(O)c1` (stereo unspecified), the IC50 amounted to 6 µM.

For `O=C1c2c(cccc2OCC2CCCCC2)CC1Cc1ccccc1O` (stereo unspecified), the concentration for half-maximal inhibition (IC50) is above 30 µM.

In the case of `O=C1c2c(cccc2OCCC2CCCCC2)CC1Cc1ccc(O)cc1` (stereo unspecified), the IC50 is 18 µM.

With `O=C1c2c(cccc2OCc2ccccc2)CC1Cc1ccc(O)cc1` (stereo unspecified), the IC50 stood at 21 µM.

For `O=C1c2c(cccc2OCCc2ccccc2)CC1Cc1ccc(O)cc1` (stereo unspecified), the concentration for half-maximal inhibition (IC50) amounted to 26 µM.

Regarding `O=C1c2c(cccc2OCCc2ccccc2)CC1Cc1ccccc1O` (stereo unspecified), the IC50 is above 30 µM.

In the case of `O=c1c(Cc2ccc(O)cc2)coc2cccc(OCC3CCCCC3)c12`, the IC50 came out at 5 µM.

As for `COCOc1ccc(CC2Cc3cccc(OCC4CCCCC4)c3C2=O)cc1` (stereo unspecified), the IC50 came out at 17 µM.
